Reference: patent US5795864A (priority 1995, dated 1998)
Bridge positions count the residues as written; N and C are the ends. Square brackets hold non-standard residues; d marks the D form. Peptide text beside a SMILES is read from it. Hyp = O=C(O)[C@@H]1C[C@@H](O)CN1

Molecular target: OCT MVIIA (SNX-111) binding site (site 1) (Rattus norvegicus, UniProt Q02294)
Assay: biochemical

Sequence of OCT MVIIA (SNX-111) binding site (site 1) (Q02294 whole entry, looked up): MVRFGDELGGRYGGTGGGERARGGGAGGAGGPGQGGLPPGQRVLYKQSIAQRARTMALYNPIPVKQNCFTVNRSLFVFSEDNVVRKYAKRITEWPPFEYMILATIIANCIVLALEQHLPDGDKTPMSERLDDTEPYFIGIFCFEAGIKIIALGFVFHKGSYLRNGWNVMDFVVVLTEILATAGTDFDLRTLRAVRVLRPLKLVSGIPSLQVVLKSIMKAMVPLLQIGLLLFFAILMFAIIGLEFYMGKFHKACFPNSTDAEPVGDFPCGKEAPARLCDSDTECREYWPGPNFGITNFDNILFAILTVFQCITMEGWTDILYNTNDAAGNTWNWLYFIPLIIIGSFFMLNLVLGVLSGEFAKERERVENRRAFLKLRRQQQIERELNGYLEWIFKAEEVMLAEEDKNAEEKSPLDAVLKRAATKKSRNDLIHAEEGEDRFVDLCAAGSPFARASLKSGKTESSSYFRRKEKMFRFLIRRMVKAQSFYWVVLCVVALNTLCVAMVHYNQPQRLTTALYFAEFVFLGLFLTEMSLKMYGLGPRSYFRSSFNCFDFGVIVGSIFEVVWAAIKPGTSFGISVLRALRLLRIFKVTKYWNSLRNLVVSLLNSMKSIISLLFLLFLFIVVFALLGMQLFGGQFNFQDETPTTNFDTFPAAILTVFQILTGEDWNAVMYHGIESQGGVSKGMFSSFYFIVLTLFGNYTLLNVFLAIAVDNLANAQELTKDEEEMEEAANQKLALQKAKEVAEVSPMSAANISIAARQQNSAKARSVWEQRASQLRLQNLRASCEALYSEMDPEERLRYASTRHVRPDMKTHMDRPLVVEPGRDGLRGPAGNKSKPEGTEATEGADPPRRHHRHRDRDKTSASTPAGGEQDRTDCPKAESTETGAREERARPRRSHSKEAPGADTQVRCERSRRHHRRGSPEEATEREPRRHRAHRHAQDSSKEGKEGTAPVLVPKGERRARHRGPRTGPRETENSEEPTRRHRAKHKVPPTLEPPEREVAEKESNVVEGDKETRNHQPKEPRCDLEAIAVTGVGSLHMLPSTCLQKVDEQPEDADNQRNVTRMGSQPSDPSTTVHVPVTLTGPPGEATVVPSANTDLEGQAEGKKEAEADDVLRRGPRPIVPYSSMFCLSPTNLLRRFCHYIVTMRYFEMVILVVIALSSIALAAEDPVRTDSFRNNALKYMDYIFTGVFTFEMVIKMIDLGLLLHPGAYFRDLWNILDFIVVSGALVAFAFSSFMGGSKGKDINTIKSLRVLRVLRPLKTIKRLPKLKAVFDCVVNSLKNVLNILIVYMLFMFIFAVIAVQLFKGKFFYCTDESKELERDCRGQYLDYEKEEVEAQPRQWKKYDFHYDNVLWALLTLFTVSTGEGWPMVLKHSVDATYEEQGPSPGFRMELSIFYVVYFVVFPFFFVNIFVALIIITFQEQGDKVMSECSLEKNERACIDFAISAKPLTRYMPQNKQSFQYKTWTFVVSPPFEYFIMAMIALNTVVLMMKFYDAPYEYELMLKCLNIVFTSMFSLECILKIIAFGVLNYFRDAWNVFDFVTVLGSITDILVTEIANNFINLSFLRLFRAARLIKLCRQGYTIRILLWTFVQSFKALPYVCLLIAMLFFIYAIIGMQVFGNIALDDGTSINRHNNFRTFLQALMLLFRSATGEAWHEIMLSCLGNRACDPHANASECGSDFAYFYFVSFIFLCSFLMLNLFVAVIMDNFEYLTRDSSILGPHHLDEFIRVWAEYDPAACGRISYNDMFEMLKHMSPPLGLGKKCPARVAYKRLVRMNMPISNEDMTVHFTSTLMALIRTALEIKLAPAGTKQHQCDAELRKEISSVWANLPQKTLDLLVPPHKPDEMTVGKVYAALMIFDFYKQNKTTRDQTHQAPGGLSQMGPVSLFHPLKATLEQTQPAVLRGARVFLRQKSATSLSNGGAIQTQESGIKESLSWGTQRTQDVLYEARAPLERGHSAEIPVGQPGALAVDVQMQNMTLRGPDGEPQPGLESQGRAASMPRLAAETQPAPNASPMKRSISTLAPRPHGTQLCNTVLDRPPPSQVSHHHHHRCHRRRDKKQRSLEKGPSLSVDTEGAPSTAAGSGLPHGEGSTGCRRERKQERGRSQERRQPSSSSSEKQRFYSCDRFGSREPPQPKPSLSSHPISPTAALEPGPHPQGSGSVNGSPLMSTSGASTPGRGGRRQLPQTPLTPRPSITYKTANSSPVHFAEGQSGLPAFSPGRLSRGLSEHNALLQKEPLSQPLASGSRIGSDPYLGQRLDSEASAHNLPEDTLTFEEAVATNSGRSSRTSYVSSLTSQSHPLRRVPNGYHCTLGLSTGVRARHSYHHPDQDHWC

CC[C@H](C)[C@@H]1NC(=O)[C@H](CO)NC(=O)[C@H]([C@@H](C)O)NC(=O)[C@H](C(C)C)NC(=O)CNC(=O)[C@@H]2CSSC[C@@H]3NC(=O)[C@H](CCCNC(=N)N)NC(=O)CNC(=O)[C@H](CSSC[C@H](N)C(=O)N[C@@H](CCCNC(=N)N)C(=O)N[C@@H](CO)C(=O)N[C@@H](CO)C(=O)NCC(=O)N[C@@H](CO)C(=O)N4C[C@H](O)C[C@H]4C(=O)N2)NC(=O)[C@H](CSSC[C@@H](C(=O)N[C@H](C(N)=O)[C@@H](C)O)NC(=O)[C@H](CCCCN)NC(=O)CNC(=O)[C@H](CCCNC(=N)N)NC(=O)[C@H](Cc2ccc(O)cc2)NC3=O)NC1=O [SNX-157] (H-CRSSGS[Hyp]CGVTSICCGRCYRGKCT-NH2; disulfide 1-15, 8-18, 14-23)
IC50: 1460 nM
